Where a name gives a salt, the structure may show the parent alone.
Legend:
[1] = Pharmacokinetic study, p.o. and i.v.; format: in vivo, mouse
HEK293 cells = assay: DCFDA ROS measurement in HEK293 cells after H2O2 insult; format: cell-based; settings: HEK293, 2 mM H2O2, 3 h
Procedure: FIGS. 8A-8C include vertical bar graphs showing QR2 inhibition reduces QR2 activity and ROS following induction of oxidative stress in HEK293 cells. (8A) QR2 activity is seen and is inhibited within HEK293 cells, amongst others, as measured by the rate of fluorescent co-factor oxidation. (8B) HEK293 cells seeded at 25μ 10^3 cells/well in 96-well plates were treated with 2 mM H2O2 with or without increasing doses or QR2 inhibitors for 3 h. Following incubation, the cells were stained with DCFDA for 45 min, and ROS levels were measured using a fluorimeter with ex/em 485/535 nm. N=3. (8C) ROS was measured in HCT cells, and similarly to HEK293, is reduced following QR2 inhibition. […] Data presented as mean±SEM. *p<0.05, ***p<0.0005.
The cells were harvested and resuspended in 1% clear medium (DMEM—with no phenol red, supplemented with 1% FBS, 1% L-Glutamine and 1% Penicillin-Streptomycin). A sterile poly-L-lysine-coated Nunc black, 96-well, clear flat-bottomed plate (Thermo Fisher Scientific) was seeded with 25,000 cells in 100 μL per well and incubated overnight. The next day, the medium was removed, and the wells carefully washed with PBS. […] The plate was then incubated in the dark at 37° C. for 3 h, before reading in a Tecan M200 Pro florescence microplate reader, using wavelengths Ex/Em=485 nm/535 nm.

QR2 = target: T1, QR2 (Homo sapiens, UniProt P16083); assay: QR2 enzymatic activity assay (menadione/BNAH), absorbance readout at 350 nm; format: biochemical; design: purchased Sigma-Aldrich
T1 sequence (P16083 1-231): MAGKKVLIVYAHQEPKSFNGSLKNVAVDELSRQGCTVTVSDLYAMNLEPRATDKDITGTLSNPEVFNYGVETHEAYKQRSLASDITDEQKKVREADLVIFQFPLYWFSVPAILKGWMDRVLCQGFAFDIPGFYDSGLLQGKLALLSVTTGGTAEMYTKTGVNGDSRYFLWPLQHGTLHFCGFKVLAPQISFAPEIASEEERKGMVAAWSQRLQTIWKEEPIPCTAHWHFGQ

QR1 (NQO1) = target: T2, QR1 (NQO1) (Homo sapiens, UniProt P15559); assay: Selectivity assay with QR1 in place of QR2, absorbance readout; format: biochemical
T2 construct: purchased Sigma-Aldrich
T2 sequence (P15559 whole entry): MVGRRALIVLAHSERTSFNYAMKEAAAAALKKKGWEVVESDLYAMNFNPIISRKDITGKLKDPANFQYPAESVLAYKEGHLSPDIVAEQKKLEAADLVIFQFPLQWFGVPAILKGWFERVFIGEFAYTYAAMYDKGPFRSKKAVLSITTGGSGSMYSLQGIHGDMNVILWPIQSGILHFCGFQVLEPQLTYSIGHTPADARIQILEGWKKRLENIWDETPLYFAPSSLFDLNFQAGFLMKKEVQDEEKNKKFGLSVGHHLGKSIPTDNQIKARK

[2] = Cell toxicity assay (ATP depletion, CellTiter Glo); settings: human
Procedure: THLE-2 (CRL-2706™) were grown in the BEGM Bullet Kit (CC-3170) from Lonza. Besides the additives contained in the kit, the medium was further supplemented with 5 ng/mL EGF (Sigma), 70 ng/mL phosphoethanolamine (Sigma) and 10% FBS (Biological Industries). The plates for the THLE-2 needed to be pre-coated with a mixture of 0.01 mg/mL fibronectin, 0.05 mg/mL of PureCol™ EZ Gel Solution (Sigma) and 0.01 mg/mL of BSA dissolved in BEBM medium (Lonza). The coating medium was aspirated before seeding.
THLE-2 cells were exposed to the compounds in a 9-point, 2-fold dilution dose response series with a 100 μM as upper limit, for 72 h. Following the 72 h of exposure to the test compounds, cell viability was determined by measuring the concentration of cellular ATP (CellTiter Glo, Promega). The luminescence signal was measured on a Pherastar FS multi-mode plate reader (BMG Labtech). Each data point was tested in a triplicate.
First, toxicity was assessed in an ATP depletion assay, using THLE-2 cells following a 72 h exposure to a dose response of each of the tested compounds.

Row | Structure (SMILES) | half-life ([1]; C57BL/6J, mouse, in vivo, po, p.o. 50 mg/kg, male mice, read-out: clearance rate half-life) [h] | brain clearance half-life ([1]; acute oral dosing, mouse brain) [h] | peak concentration in brain ([1]; male, C57BL/6J, mouse, in vivo, po) [ng/g] | bioavailability ([1]; p.o. 50 mg/kg, male mice) [%] | brain clearance half-life ([1]; p.o., male mouse brain) [h] | time of peak in brain following p.o. administration ([1]; p.o., male mouse brain) [h] | ROS levels after ROS insult (DCFDA) (HEK293 cells) | IC50 (QR2) [µM] | IC50 (QR1 (NQO1)) [µM] | IC50 at 72 h [2] [µM]
1 | Cc1ccc(-c2cn3cccc(C)c3n2)cc1S(=O)(=O)N1CCNCC1 [YB-537, 8-methyl-2-(4-methyl-3-(piperazin-1-ylsulfonyl)phenyl)imidazo[1,2-a]pyridine hydrochloride] | 1 | ~1 | 203 | 82 | 1.06 | ~1 |  |  |  | 
2 | Cc1cccn2cc(-c3cccc(S(=O)(=O)N4CCC(C)CC4)c3)nc12 [YB-800] |  |  |  |  |  |  | reduced in a dose dependent manner | 0.02 | > 9.99 | 78.4

From patent US20240228481A1, “NOVEL SULFONAMIDE SERIES OF QR2 INHIBITORS TO TACKLE OXIDATIVE STRESS AND COGNITIVE DECLINE” (CARMEL HAIFA UNIVERSITY ECONOMIC CORPORATION LTD., priority 2021, published 2024)
